{"source": "paper PMC12823391", "about": "(Nature, 2025)", "key": {"[1]": {"target": "T1, MBP–NLRX1 (87–975 amino acids) (Homo sapiens, UniProt Q86UT6)", "T1 sequence (Q86UT6 87-975)": "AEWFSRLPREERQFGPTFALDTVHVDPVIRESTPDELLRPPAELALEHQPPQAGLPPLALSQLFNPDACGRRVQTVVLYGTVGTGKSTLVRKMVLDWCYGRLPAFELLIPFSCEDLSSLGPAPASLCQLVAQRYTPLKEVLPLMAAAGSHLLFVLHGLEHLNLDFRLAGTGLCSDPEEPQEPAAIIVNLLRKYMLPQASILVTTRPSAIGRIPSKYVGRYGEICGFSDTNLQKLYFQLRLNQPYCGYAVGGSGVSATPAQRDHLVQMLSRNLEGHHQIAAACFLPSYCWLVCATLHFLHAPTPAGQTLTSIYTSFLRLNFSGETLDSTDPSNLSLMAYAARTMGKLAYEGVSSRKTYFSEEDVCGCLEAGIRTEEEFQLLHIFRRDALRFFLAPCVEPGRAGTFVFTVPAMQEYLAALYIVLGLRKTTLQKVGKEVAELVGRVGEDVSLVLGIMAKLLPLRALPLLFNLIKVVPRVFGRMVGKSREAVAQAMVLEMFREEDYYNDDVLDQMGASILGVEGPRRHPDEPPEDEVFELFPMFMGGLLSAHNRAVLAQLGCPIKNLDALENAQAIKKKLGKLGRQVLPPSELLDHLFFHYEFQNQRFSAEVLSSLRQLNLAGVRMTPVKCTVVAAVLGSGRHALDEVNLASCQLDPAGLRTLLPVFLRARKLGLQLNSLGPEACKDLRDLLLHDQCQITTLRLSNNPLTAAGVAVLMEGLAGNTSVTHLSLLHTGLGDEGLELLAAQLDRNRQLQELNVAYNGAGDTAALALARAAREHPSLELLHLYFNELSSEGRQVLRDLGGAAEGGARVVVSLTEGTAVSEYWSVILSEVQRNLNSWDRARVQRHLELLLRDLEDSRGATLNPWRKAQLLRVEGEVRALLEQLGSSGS", "assay": "competition of AcCoA with biotin-AcCoA pull-down, immunoblot", "format": "binding", "conditions": "unlabelled AcCoA as competitor"}, "[2]": {"target": "endogenous NLRX1 (HeLa cell lysate) (Homo sapiens, UniProt Q86UT6)", "sequence (Q86UT6 87-975)": "as above", "assay": "cellular thermal shift assay on lysate, immunoblot", "format": "biochemical", "conditions": "500 µM AcCoA, 44.6-65 °C, 3 min"}, "[3]": {"target": "T1, MBP–NLRX1 (87–975 amino acids)", "assay": "biotin-CoASH pull-down and competition with CoASH, immunoblot", "format": "binding", "conditions": "labelled compound; unlabelled CoASH as competitor"}, "[4]": {"target": "T1, MBP–NLRX1 (87–975 amino acids)", "assay": "biotin-acyl-CoA pull-down, immunoblot", "format": "binding", "conditions": "labelled compound (biotin conjugate)"}}, "data": [{"smiles": "CC(=O)SCCNC(=O)CCNC(=O)[C@H](O)C(C)(C)COP(=O)(O)OP(=O)(O)OC[C@H]1O[C@@H](n2cnc3c(N)ncnc32)[C@H](O)[C@@H]1OP(=O)(O)O", "note": "[AcCoA]", "values": [{"measurement": "competition of AcCoA with biotin-AcCoA pull-down, immunoblot", "setting": "[1]", "result": "increasing concentrations of AcCoA competed with biotin–AcCoA for NLRX1 binding"}, {"measurement": "thermal shift", "setting": "[2]", "result": "AcCoA addition substantially increased the stability of NLRX1 protein level compared with CoASH"}]}, {"smiles": "CC(C)(COP(=O)(O)OP(=O)(O)OC[C@H]1O[C@@H](n2cnc3c(N)ncnc32)[C@H](O)[C@@H]1OP(=O)(O)O)[C@@H](O)C(=O)NCCC(=O)NCCS", "note": "[CoASH]", "values": [{"measurement": "biotin-CoASH pull-down and competition with CoASH, immunoblot", "setting": "[3]", "result": "CoASH was associated with recombinant NLRX1 to a lesser extent than AcCoA was"}]}, {"smiles": "CC(C)(COP(=O)(O)OP(=O)(O)OC[C@H]1O[C@@H](n2cnc3c(N)ncnc32)[C@H](O)[C@@H]1OP(=O)(O)O)[C@@H](O)C(=O)NCCC(=O)NCCSC(=O)CC(=O)O", "note": "[malonyl-CoA]", "values": [{"measurement": "biotin-acyl-CoA pull-down, immunoblot", "setting": "[4]", "result": "no interaction between recombinant NLRX1 and malonyl-CoA or succinyl-CoA was detected"}]}, {"smiles": "CC(C)(COP(=O)(O)OP(=O)(O)OC[C@H]1O[C@@H](n2cnc3c(N)ncnc32)[C@H](O)[C@@H]1OP(=O)(O)O)[C@@H](O)C(=O)NCCC(=O)NCCSC(=O)CCC(=O)O", "note": "[succinyl-CoA]", "values": [{"measurement": "biotin-acyl-CoA pull-down, immunoblot", "setting": "[4]", "result": "no interaction between recombinant NLRX1 and malonyl-CoA or succinyl-CoA was detected"}]}]}
